From ChEMBL document CHEMBL1201862, “PubChem BioAssay data set” (2004)
Active and inactive are the calls of the source.

How the values were obtained:
[1] = molecular target: G-protein coupled receptor 55 (Homo sapiens, UniProt Q9Y2T6); experiment: GPR55 antagonists blocking LPI-driven arrestin recruitment, primary screen, imaging, U2OS, beta-arrestin-GFP, LPI agonist (AID 2013); format: functional;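 note: antagonist potency measured as reduced agonist-driven arrestin aggregation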
[2] = cytotoxicity toward NIH3T3 fibroblasts, dose response, counter-screen, cell-based, ATP luminescence, mouse fibroblasts (AID 2010); format: functional;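 note: cells exposed to compound for about 90 hours before reading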
Beta-galactosidase = Beta-galactosidase (Escherichia coli, UniProt Q8VNN2); experiment: PubChem AID 485352; format: functional
[3] = C. albicans growth with fluconazole, confirmation, fluorescence, retest (AID 2467); format: functional, cell-based
[4] = inhibitors of intracellular T. cruzi replication, confirmation, NIH3T3 host cells, beta-gal luminescence (AID 2044); format: functional, cell-based;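 note: intracellular parasites grown in NIH/3T3 mouse fibroblasts as host cells; luminescent beta-galactosidase reporter signal from transgenic T. cruzi replicating inside host cells; inhibitors lower the luminescence signal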
[5] = molecular target: T1, Type-1 angiotensin II receptor (Homo sapiens, UniProt P30556); experiment: AT1 receptor antagonists, dose response, selectivity assay for APJ receptor antagonist project, cell-based, uHTS hits (AID 463214); format: functional;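 note: antagonist potency against angiotensin II stimulated AT1 response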
T1 sequence (P30556 whole entry): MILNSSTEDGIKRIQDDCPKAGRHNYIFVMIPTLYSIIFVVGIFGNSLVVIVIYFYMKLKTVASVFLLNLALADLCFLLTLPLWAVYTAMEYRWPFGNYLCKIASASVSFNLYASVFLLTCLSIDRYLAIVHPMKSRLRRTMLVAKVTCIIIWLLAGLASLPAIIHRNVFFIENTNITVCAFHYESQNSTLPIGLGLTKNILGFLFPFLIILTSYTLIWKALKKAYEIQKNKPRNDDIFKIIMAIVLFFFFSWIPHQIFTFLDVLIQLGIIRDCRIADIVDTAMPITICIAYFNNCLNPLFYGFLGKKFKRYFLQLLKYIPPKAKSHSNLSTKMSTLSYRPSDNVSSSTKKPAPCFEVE

[6] = NIH-3T3 fibroblast cytotoxicity, dose response, cytotoxicity control, cell-based, fluorescence, Alamar Blue, secondary assay (AID 2327); format: functional;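 note: NIH-3T3 mouse fibroblasts cultured with fluconazole at 8 µg/mL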
[7] = molecular target: DNA dC->dU-editing enzyme APOBEC-3A (Homo sapiens, UniProt P31941); experiment: APOBEC3A DNA deaminase inhibitors, dose response, biochemical (AID 504722); format: functional
[8] = molecular target: DNA dC->dU-editing enzyme APOBEC-3G (Homo sapiens, UniProt Q9HC16); experiment: Dose Response confirmation of small molecule APOBEC3G DNA Deaminase Inhibitors via a fluorescence-based single-stranded DNA deaminase assay. [Related pubchem assays (depositor defined):AID493012, AID493028]; format: functional
[9] = molecular target: T2, Rac GTPase-activating protein 1 (Homo sapiens, UniProt Q9H0H5); experiment: MgcRacGAP GTPase-activating activity inhibitors, confirmation, biochemical, ADP Hunter fluorescence, primary and confirmatory (AID 624330); format: functional
T2 sequence (Q9H0H5 whole entry): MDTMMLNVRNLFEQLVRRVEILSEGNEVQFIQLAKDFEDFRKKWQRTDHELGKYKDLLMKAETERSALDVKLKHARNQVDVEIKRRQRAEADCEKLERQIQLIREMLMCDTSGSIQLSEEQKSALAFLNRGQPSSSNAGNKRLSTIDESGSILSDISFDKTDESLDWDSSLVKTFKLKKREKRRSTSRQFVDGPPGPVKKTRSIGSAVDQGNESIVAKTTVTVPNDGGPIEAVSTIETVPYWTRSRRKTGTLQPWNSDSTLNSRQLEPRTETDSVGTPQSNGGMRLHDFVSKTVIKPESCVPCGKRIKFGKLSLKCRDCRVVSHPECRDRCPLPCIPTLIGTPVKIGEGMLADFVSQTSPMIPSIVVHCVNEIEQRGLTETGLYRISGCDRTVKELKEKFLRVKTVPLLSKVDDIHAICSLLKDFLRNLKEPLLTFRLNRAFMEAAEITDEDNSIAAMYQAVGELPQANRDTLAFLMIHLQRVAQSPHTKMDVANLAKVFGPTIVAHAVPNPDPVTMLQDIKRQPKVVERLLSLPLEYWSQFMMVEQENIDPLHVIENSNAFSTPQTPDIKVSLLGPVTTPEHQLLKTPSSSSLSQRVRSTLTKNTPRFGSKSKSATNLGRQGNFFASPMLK

Troponin, cardiac muscle = Troponin, cardiac muscle (Homo sapiens, UniProt P19429+P45379+P63316); experiment: Fluorescence-based biochemical high throughput dose response assay for activators of the calcium sensitivity of cardiac Regulated Thin Filaments (RTF). [Related pubchem assays (depositor defined):AID493008, AID493018, AID504382, AID504383]; format: protein-complex assay
Hexokinase = molecular target: T3, Hexokinase (Trypanosoma brucei, UniProt Q38C41); experiment: Confirmation assay for inhibitors of Trypanosoma brucei hexokinase 1-Analogue-first series. [Related pubchem assays (depositor defined):AID1430, AID1632, AID2516, AID2560, AID2579, AID2600, AID449725, AID492951]; format: functional
T3 sequence (Q38C41 whole entry): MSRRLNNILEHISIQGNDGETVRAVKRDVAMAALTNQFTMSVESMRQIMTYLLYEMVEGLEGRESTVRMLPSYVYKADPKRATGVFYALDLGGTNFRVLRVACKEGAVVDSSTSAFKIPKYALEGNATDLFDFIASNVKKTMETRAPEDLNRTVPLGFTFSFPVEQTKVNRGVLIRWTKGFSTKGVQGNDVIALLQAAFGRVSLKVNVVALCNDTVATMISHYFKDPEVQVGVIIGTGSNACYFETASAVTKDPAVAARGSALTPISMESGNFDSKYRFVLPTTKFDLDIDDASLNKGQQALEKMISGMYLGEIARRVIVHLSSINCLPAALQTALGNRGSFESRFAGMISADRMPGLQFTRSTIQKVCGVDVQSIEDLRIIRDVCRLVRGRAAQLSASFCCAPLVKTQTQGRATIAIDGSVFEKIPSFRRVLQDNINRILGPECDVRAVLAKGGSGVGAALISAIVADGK

Melanocortin receptor 4 = Melanocortin receptor 4 (Homo sapiens, UniProt P32245); format: functional, cell-based;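 note: Cell-based assay with luminescence read-out, confirmatory dose-response testing for agonist activity of biased ligands at MC4R; human U2OS cells with tagged receptor and beta-arrestin; potency of agonists that increase receptor coupling to beta-arrestin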
[10] = Luminescence Cell-Based Dose Response HTS to Identify Inhibitors of 5'UTR Stem-Loop Driven Prion Protein mRNA Translation in H4 Neuroglioblastoma Cells. [Related pubchem assays: 1827 (Project Summary), 1813 (Primary HTS)]; format: functional
[11] = growth suppression of PTEN-null colon cells, dose response, cell-based, HCT116 PTEN knockout (AID 1047); format: functional;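 note: HCT116 colon tumor cells with PTEN knocked out; cells exposed to compound for 60 hours before readout; potency for loss of cell viability measured by luminescence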
[12] = microbe, parasite or virus in culture; format: functional; settings: Mycobacterium tuberculosis
[13] = molecular target: T4, Ubiquitin-conjugating enzyme E2 N (Homo sapiens, UniProt P61088); format: functional;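 note: Dose-response confirmation in a TR-FRET assay detecting UBC13-driven polyubiquitin chain formation, inhibition measured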
T4 sequence (P61088 whole entry): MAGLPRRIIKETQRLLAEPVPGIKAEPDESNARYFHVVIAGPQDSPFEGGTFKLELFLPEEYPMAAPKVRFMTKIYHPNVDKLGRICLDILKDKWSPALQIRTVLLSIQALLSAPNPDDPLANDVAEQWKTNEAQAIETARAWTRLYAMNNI

[14] = inhibitors of SNCA 5'UTR-driven reporter translation, confirmation, H4 neuroglioma cells, luminescence (AID 1988); format: functional, cell-based
[15] = growth suppression of beta-catenin-knockout colon cells, dose response, cell-based, HCT116, human colon tumor (AID 1045); format: functional;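 note: HCT116 colon tumor cells with beta catenin knocked out; cells exposed to compound for 60 hours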
[16] = HeLa cell cytotoxicity, dose response, cytotoxicity control for MgcRacGAP inhibitor project (AID 624300); format: functional
[17] = molecular target: Glucose-6-phosphate 1-dehydrogenase (Homo sapiens, UniProt P11413); experiment: human G6PD enzyme inhibitors, dose response, selectivity assay for P. falciparum G6PD inhibitor project, biochemical, fluorescence (AID 504792); format: functional
[18] = molecular target: T5, High affinity choline transporter 1 (Homo sapiens, UniProt Q9GZV3); experiment: CHT inhibitors, dose response, cell-based, 5-point CRC, membrane potential dye (AID 504840); format: functional
T5 sequence (Q9GZV3 whole entry): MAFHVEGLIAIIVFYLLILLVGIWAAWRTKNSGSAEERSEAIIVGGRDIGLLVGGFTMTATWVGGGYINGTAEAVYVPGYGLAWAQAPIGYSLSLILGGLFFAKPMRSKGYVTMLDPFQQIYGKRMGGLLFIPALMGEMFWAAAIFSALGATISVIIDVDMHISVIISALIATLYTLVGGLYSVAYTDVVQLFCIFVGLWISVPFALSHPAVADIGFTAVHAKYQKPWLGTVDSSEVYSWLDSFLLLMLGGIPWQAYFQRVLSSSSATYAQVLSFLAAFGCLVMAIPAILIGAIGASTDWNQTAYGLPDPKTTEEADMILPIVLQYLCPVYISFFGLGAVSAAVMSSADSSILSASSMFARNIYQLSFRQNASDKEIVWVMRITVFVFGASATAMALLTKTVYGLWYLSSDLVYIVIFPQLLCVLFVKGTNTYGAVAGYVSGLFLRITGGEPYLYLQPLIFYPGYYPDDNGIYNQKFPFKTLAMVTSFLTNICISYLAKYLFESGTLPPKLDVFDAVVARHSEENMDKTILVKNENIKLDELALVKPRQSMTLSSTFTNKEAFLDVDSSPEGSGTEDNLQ

[19] = molecular target: T6, E3 ubiquitin-protein ligase XIAP (Homo sapiens, UniProt P98170); experiment: XIAP antagonists, biochemical, IAP family, fluorescence polarization (AID 1018); format: functional
[20] = molecular target: T6, E3 ubiquitin-protein ligase XIAP; experiment: Counter Screen using XIAP-Bir3 for Chemical Antagonists of Bir1/2 domains of IAP-family anti-apoptotic proteins. [Related pubchem assays (depositor defined):AID1018, AID1449, AID1514, AID1638, AID1749, AID1750, AID488957, AID488963]

Chain of Beta-galactosidase (Q8VNN2 whole entry): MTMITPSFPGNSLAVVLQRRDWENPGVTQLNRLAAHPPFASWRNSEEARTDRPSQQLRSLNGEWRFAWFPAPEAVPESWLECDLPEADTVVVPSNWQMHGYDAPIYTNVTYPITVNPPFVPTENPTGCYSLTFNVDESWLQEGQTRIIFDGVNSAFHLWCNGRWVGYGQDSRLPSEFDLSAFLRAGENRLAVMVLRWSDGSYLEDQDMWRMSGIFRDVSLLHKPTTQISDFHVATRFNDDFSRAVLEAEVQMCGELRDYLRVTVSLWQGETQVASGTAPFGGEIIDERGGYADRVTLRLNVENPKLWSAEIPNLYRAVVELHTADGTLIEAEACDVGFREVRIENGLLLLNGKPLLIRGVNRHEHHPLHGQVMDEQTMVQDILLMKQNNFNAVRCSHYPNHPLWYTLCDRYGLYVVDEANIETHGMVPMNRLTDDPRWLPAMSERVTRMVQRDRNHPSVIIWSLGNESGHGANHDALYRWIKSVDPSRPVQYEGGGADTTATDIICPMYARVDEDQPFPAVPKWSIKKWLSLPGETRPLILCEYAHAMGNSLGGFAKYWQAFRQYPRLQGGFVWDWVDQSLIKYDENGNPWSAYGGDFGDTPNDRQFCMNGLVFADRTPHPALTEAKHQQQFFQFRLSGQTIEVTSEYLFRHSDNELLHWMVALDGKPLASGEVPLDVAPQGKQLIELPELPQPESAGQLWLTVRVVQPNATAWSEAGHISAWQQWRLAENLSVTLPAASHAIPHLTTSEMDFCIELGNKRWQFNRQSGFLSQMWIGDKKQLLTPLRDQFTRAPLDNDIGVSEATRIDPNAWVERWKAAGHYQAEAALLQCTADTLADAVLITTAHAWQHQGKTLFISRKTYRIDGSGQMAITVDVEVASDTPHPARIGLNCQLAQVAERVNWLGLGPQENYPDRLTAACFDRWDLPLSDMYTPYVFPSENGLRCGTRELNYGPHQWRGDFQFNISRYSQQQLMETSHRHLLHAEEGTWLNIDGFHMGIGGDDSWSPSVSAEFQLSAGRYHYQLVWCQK
Chain of DNA dC->dU-editing enzyme APOBEC-3G (Q9HC16 whole entry): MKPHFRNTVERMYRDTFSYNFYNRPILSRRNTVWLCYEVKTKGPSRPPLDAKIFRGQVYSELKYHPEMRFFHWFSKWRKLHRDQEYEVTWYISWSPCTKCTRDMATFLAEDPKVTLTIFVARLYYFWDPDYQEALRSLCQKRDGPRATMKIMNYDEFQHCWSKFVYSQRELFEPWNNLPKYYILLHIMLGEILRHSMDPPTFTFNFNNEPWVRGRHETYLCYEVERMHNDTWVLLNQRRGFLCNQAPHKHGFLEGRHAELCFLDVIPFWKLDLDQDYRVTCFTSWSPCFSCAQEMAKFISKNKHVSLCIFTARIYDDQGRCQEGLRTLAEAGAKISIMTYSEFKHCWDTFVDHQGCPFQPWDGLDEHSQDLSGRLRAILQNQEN
Chain of DNA dC->dU-editing enzyme APOBEC-3A (P31941 whole entry): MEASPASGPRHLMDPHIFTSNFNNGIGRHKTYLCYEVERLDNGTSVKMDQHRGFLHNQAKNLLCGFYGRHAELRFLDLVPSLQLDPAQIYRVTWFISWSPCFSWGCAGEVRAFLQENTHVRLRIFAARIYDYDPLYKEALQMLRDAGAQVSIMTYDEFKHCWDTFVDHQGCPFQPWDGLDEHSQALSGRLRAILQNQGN
T6 sequence (P98170 whole entry): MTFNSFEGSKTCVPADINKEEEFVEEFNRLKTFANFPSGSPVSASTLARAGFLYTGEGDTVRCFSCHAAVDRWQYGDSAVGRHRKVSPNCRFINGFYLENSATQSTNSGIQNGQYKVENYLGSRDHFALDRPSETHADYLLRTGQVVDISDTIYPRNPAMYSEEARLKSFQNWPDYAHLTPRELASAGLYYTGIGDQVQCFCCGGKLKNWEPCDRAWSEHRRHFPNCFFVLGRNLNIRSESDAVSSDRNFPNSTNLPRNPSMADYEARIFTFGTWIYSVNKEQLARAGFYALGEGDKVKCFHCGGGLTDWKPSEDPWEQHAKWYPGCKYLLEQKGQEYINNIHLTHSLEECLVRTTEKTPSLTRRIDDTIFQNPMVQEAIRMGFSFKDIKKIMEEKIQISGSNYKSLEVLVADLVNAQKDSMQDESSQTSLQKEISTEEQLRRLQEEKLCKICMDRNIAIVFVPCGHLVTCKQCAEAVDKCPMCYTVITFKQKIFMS
Chain of G-protein coupled receptor 55 (Q9Y2T6 whole entry): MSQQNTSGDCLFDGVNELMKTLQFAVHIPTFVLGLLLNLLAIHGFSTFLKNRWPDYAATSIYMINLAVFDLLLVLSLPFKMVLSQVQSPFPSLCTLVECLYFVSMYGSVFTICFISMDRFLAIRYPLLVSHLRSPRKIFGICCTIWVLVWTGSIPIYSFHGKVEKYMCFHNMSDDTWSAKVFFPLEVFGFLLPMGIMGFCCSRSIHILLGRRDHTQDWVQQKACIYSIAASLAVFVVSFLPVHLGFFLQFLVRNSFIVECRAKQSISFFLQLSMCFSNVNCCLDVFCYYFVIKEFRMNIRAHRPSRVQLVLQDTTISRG
Chain of Glucose-6-phosphate 1-dehydrogenase (P11413 whole entry): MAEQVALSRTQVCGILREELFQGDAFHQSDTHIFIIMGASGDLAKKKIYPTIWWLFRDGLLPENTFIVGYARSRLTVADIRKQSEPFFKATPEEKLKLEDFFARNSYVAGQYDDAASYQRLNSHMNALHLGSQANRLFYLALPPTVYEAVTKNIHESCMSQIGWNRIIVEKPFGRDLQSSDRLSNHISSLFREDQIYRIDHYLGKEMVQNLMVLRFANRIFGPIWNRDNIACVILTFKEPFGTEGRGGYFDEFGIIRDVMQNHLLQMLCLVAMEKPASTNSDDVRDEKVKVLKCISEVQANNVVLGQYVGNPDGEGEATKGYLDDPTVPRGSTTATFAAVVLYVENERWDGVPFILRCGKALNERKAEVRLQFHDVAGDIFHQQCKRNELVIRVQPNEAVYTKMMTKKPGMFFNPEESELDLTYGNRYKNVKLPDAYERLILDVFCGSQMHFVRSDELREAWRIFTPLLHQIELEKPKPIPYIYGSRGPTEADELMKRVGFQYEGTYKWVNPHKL
Chain of Melanocortin receptor 4 (P32245 whole entry): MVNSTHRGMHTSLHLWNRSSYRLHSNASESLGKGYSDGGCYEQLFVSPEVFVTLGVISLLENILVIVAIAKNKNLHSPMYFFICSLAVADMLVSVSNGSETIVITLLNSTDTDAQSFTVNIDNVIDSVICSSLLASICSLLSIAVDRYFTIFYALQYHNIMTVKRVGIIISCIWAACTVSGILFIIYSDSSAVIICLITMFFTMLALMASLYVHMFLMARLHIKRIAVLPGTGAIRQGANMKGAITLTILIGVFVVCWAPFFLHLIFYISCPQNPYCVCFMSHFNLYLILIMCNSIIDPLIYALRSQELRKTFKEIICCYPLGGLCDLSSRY

NNC(=O)COc1ccc(-c2[nH]nc(C(F)(F)F)c2-c2ccc(Br)cc2)c(O)c1
IC50 [1]: 1.7 µM (active)

CCCCCC1CCC(c2nnc(S)n2C)CC1 (configuration not stated)
EC50 [2]: > 60 µM (not active) | EC50 (Beta-galactosidase): > 40 µM (inactive) | EC50 [3]: > 38 µM (not active) | EC50 [4]: 1.92 µM (active) | IC50 [5]: > 40 µM (not active) | EC50 [6]: > 150 µM (inactive)

Sc1nnc(-c2ccncc2)n1/N=C/c1ccccc1
IC50 [7]: > 100 µM (inactive) | IC50 [8]: 2.52 µM (active) | IC50 [9]: 51.9 µM (active)

O=C1c2ccsc2SCCN1Cc1ccc(F)cc1
EC50 (Troponin, cardiac muscle): > 71.5 µM (inactive)

Cc1cc(C)c2nc(NC(=O)C3CCCO3)sc2c1 (configuration not stated)
EC50 (Troponin, cardiac muscle): > 71.5 µM (inactive)

O=C(Cn1sc2ccccc2c1=O)Nc1ccc(I)cc1
IC50 (Hexokinase): 14.8 µM (active)

CN(C)CCCNC(=O)c1ccc(-c2nc(-c3ccc(Cl)cc3)cs2)cc1
EC50 (Melanocortin receptor 4): > 9.91 µM (active) | EC50 [10]: > 120 µM (not active) | EC50 [2]: 10.2 µM (active) | EC50 (Beta-galactosidase): > 40 µM (inactive) | EC50 [11]: 2.41 µM (active) | CC50 [12]: 4.08 µM (active) | EC50 [3]: 3.33 µM (active) | IC50 [13]: > 20 µM (inactive) | EC50 [14]: 9.67 µM (inconclusive) | EC50 [4]: 0.738 µM (active) | EC50 [15]: 2.25 µM (active) | IC50 [5]: 22.6 µM (not active) | EC50 [6]: 44.4 µM (inconclusive)

Cc1ccc(-n2sc3cc(F)ccc3c2=O)c(C)c1
CC50 [16]: 72.5 µM (active) | IC50 [17]: 9.17 µM (active) | IC50 (Hexokinase): 4.77 µM (active) | IC50 [9]: 35.8 µM (active)

O=C(Nc1ccccc1N1CCOCC1)c1cc(-c2ccncc2)nc2ccccc12
IC50 [1]: 4.89 µM (active)

CCc1nnc(NS(=O)(=O)c2ccc(NC(=O)/C=C/c3ccccc3Cl)cc2)s1
IC50 [18]: 13.8 µM (active) | IC50 [1]: 1.99 µM (active)

COc1ccccc1NC(=O)CCC(=O)OCC(=O)c1ccc(C)c([N+](=O)[O-])c1
EC50 (Beta-galactosidase): > 40 µM (inactive) | IC50 [5]: 33.7 µM (not active)

O=C(O)CCN1CCc2ccccc21
IC50 [19]: > 100 µM (not active) | IC50 [20]: > 100 µM (inactive)

COCc1cc(C)c(C#N)c(S)n1
IC50 [7]: > 100 µM (inactive) | IC50 [8]: 14.1 µM (active)

COc1nc(NS(=O)(=O)c2ccc(C)cc2)nc(C)c1Cl
IC50 [19]: > 100 µM (not active) | IC50 [20]: > 100 µM (inactive)

O=c1c(O)c(-c2ccc(O)c(O)c2)oc2cc(O)cc(O)c12 [QUERCETIN]
IC50 (Hexokinase): 22.4 µM (active)

O=C(Nc1cc(Cl)ccc1C(=O)O)c1ccc(-c2ccccc2)cc1
IC50 (Hexokinase): 22.3 µM (active)

Cc1cc(N2CCCC2)ccc1C=C(C#N)C#N
EC50 (Troponin, cardiac muscle): 4.16 µM (active)

O=C(O)CCN(Cc1ccccc1)S(=O)(=O)c1ccccc1Cl
IC50 [19]: > 100 µM (not active) | IC50 [20]: > 100 µM (inactive)

O=C(Cc1ccccc1)NCC(=O)OCC(=O)c1ccc(Cl)c([N+](=O)[O-])c1
EC50 (Beta-galactosidase): > 40 µM (inactive) | IC50 [5]: 9.37 µM (active)

Cc1cccc(OCc2nc(C#N)c(NCCN(C)C)o2)c1
IC50 [19]: > 100 µM (not active) | IC50 [20]: > 100 µM (inactive)

CC(/C=N/n1c(S)nnc1-c1cccnc1)=C\c1ccco1
IC50 [7]: > 100 µM (inactive) | IC50 [8]: 1.93 µM (active)
